Each compound was assayed on Bmi-1 (assay: Sandwich ELISA Assay (Bmi-1 ELISA) in HT-1080 cells).
Format: cell-based
Summary of the method: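 Bmi-1 in lysates was measured by a three-antibody ELISA with TMB, OD450 minus OD570 reference, interpolated on a GST-tagged recombinant Bmi-1 standard curve, 0-8000 pg/mL. Lysates came from HT-1080 cells treated 40-48 h with compound, final DMSO 0.5%.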

Structure (SMILES)	EC50 [nM]
Cc1nc2c(F)cc(F)cc2n1-c1nc(N)c(F)c(Nc2ccc(C(F)(F)F)cc2)n1 [Cpd 127, 2-(4,6-difluoro-2-methyl-1H-benzimidazol-1-yl)-5-fluoro-N-[4-(trifluoromethyl)phenyl]pyrimidine-4,6-diamine]	10 to 100
CCc1nc2c(F)cc(F)cc2n1-c1nc(N)c(F)c(Nc2ccc(C(F)(F)F)cc2)n1 [Cpd 129, 2-(2-ethyl-4,6-difluoro-1H-benzimidazol-1-yl)-5-fluoro-N-[4-(trifluoromethyl)phenyl]pyrimidine-4,6-diamine]	10 to 100
CCc1nc2c(F)cc(F)cc2n1-c1nc(N)c(F)c(Nc2ccc(OC(F)F)c(F)c2)n1 [Cpd 130, N-[4-(difluoromethoxy)-3-fluorophenyl]-2-(2-ethyl-4,6-difluoro-1H-benzimidazol-1-yl)-5-fluoropyrimidine-4,6-diamine]	10 to 100
CCc1nc2c(F)cc(F)cc2n1-c1nc(N)c(F)c(Nc2ccc(OC(F)F)cc2)n1 [Cpd 132, N-[4-(difluoromethoxy)phenyl]-2-(2-ethyl-4,6-difluoro-1H-benzimidazol-1-yl)-5-fluoropyrimidine-4,6-diamine]	10 to 100
Cc1nc2cc(F)c(F)cc2n1-c1nc(N)c(F)c(Nc2ccc(OC(F)F)cc2)n1 [Cpd 133, N-[4-(difluoromethoxy)phenyl]-2-(5,6-difluoro-2-methyl-1H-benzimidazol-1-yl)-5-fluoropyrimidine-4,6-diamine]	10 to 100
Cc1nc2c(F)cccc2n1-c1nc(N)c(F)c(Nc2ccc(OC(F)F)cc2)n1 [Cpd 135, N-[4-(difluoromethoxy)phenyl]-5-fluoro-2-(4-fluoro-2-methyl-1H-benzimidazol-1-yl)pyrimidine-4,6-diamine]	10 to 100
Cc1nc2c(F)cccc2n1-c1nc(N)c(F)c(Nc2ccc(OC(F)F)c(F)c2)n1 [Cpd 136, N-[4-(difluoromethoxy)-3-fluorophenyl]-5-fluoro-2-(4-fluoro-2-methyl-1H-benzimidazol-1-yl)pyrimidine-4,6-diamine]	10 to 100
Cc1nc2ncccc2n1-c1nc(N)c(F)c(Nc2ccc(C(F)(F)F)cc2)n1 [Cpd 137, 5-fluoro-2-(2-methyl-1H-imidazo[4,5-b]pyridin-1-yl)-N-[4-(trifluoromethyl]phenyl]pyrimidine-4,6-diamine]	10 to 100
Cc1nc2ncccc2n1-c1nc(N)c(F)c(Nc2ccc(OC(F)F)c(F)c2)n1 [Cpd 139, N-[4-(difluoromethoxy)-3-fluorophenyl]-5-fluoro-2-(2-methyl-1H-imidazo[4,5-b]pyridin-1-yl)pyrimidine-4,6-diamine]	100 to 3000
Nc1nc(-n2c(C3CC3)nc3c(F)cccc32)nc(Nc2ccc(C(F)(F)F)cc2)c1F [Cpd 140, 2-(2-cyclopropyl-4-fluoro-1H-benzimidazol-1-yl)-5-fluoro-N-[4-(trifluoromethyl]phenyl]pyrimidine-4,6-diamine]	10 to 100

Next, values leading:

EC50 [nM]	Structure (SMILES)
10 to 100	Cc1nc2c(F)cc(F)cc2n1-c1nc(N)c(F)c(Nc2ccc(OC(F)F)c(F)c2)n1 [Cpd 128, N-[4-(difluoromethoxy)-3-fluorophenyl]-2-(4,6-difluoro-2-methyl-1H-benzimidazol-1-yl)-5-fluoropyrimidine-4,6-diamine]
10 to 100	Cc1nc2c(F)cc(F)cc2n1-c1nc(N)c(F)c(Nc2ccc(OC(F)F)cc2)n1 [Cpd 131, N-[4-(difluoromethoxy)phenyl]-2-(4,6-difluoro-2-methyl-1H-benzimidazol-1-yl)-5-fluoropyrimidine-4,6-diamine]
10 to 100	Cc1nc2c(F)cccc2n1-c1nc(N)c(F)c(Nc2ccc(C(F)(F)F)cc2)n1 [Cpd 134, 5-fluoro-2-(4-fluoro-2-methyl-1H-benzimidazol-1-yl)-N-[4-(trifluoromethyl)phenyl]pyrimidine-4,6-diamine]
10 to 100	Cc1nc2ncccc2n1-c1nc(N)c(F)c(Nc2ccc(OC(F)F)cc2)n1 [Cpd 138, N-[4-(difluoromethoxy)phenyl]-5-fluoro-2-(2-methyl-1H-imidazo[4,5-b]pyridin-1-yl)pyrimidine-4,6-diamine]

From US11180483B2, “Substituted reverse pyrimidine Bmi-1 inhibitors” (PTC Therapeutics, Inc., priority 2012, dated 2021)
